# Test results as given in patent US10364270B2, “Eye-care peptide, its composition and method of using the same” (PRO SUNFUN BIOTECH RESEARCH AND DEVELOPMENT CO., LTD., priority 2017, dated 2019).
# Peptide text beside a SMILES is read from it.
# Test system: HCEC cells
# Assay: MTT assay, viability of HCEC cells
# Assay type: cell-based, Human
# Experimental: Human corneal epithelial cell line, HCEC, was cultured in complete KSF containing keratinocyte-serum free medium, 5 ng/ml human recombinant EGF, 0.05 mg/ml bovine pituitary extract, 0.005 mg/ml insulin and 500 ng/ml hydrocortisone under 5% CO2 at 37° C.
# Cells (2×10^4) in 1 ml complete KSF were seeded in 12-well plates with or without Peptide NO. 12. Seventy microliters of 5 mg/ml 3-(4,5-dimethyl-2-thiazolyl)-2,5-diphenyl-2H-tetrazolium bromide solution (MTT; Sigma) was added to each well for the indicated times and incubated at 37° C. for 3 hours, after which 700 μl 10% SDS in 0.01 N HCl was added to dissolve the MTT formazan crystals. The resultant optical density was measured spectrophotometrically at dual wavelengths, 550 and 630 nm.
compound,measurement,setting,value
"CC(C)C[C@H](NC(=O)[C@@H]1CCCN1C(=O)[C@H](CC(N)=O)NC(=O)[C@@H](N)CCCNC(=N)N)C(=O)N[C@@H](CCC(=O)O)C(=O)N[C@@H](CCC(=O)O)C(=O)N[C@H](C(=O)O)[C@@H](C)O [Peptide NO. 12, ArgAsnProLeuGluGluThr] (H-RNPLEET-OH; N-terminus and C-terminus assumed)",viability of HCEC cells,"24 hours, 5, 10, 25 and 50 μg/ml, FIG. 3",did not significantly affect viability of HCEC cells
same,viability of HCEC cells,"48 hours, 5, 10, 25 and 50 μg/ml, FIG. 4",did not significantly affect viability of HCEC cells
